Values after ≈ are worked out from the molar mass of the structure shown. Read-outs that look alike come from different tables or passages of the source.
How the values were obtained:
[1] = human plasma, after oral administration; cited from earlier work
[2] = Solubility of brexanolone by visual assessment of dissolution in various solvents; assay type: physicochemical; conditions: for solubility / solubility at 1 h: thermodynamic from solid; for solubility at 1 h: 40° C. for 1 h
Description: Solubility of the supplied brexanolone was determined by visual assessment of dissolution in various solvents at RT (˜22° C.) and 40° C. Aliquots of solvent were added to a fixed amount of brexanolone (˜10 mg) at room temperature until the dissolution point or a maximum volume of 1.8 mL was reached. All samples were then heated to 40° C. for 1 h and dissolution was observed. As shown in Error!

## CC(=O)[C@H]1CC[C@H]2[C@@H]3CC[C@H]4C[C@](C)(O)CC[C@]4(C)[C@H]3CC[C@]12C [Ganaxolone, ganaxolone]
[1]
  half-life: approximately 20 hours

## CC(=O)[C@H]1CC[C@H]2[C@@H]3CC[C@H]4C[C@H](O)CC[C@]4(C)[C@H]3CC[C@]12C [brexanolone]
[2]; 22 °C, organic solvent or mixture, RT, in MeCN, IPE, MTBE, IPA, MeOH, IPA:water (9:1, v:v), toluene, DMSO, EtOAc (span over these solvents), read-out: moderate solubility at RT
  solubility: 6 to 52 mg/mL (≈ 18.8 to 163 mM)
[2]; 22 °C, organic solvent or mixture, RT, in THF and DCM, read-out: high solubility at RT
  solubility: > 96 mg/mL
[2]; organic solvent or mixture, solvent 2-Propanol (IPA)
  solubility at 1 h: > 19 mg/mL
[2]; organic solvent or mixture, solvent 2-Propanol (IPA), RT (~22° C.), read-out: Solubility at RT
  solubility: 19 to 49 mg/mL (≈ 59.7 to 154 mM)
[2]; organic solvent or mixture, solvent 2-Propanol:water (9:1, v:v)
  solubility at 1 h: > 20 mg/mL
[2]; organic solvent or mixture, solvent 2-Propanol:water (9:1, v:v), RT (~22° C.), read-out: Solubility at RT
  solubility: 20 to 51 mg/mL (≈ 62.8 to 160 mM)
[2]; organic solvent or mixture, solvent Acetonitrile (MeCN)
  solubility at 1 h: > 6 mg/mL
[2]; organic solvent or mixture, solvent Acetonitrile (MeCN), RT (~22° C.), read-out: Solubility at RT
  solubility: 6 to 10 mg/mL (≈ 18.8 to 31.4 mM)
[2]; organic solvent or mixture, solvent Dichloromethane (DCM)
  solubility at 1 h: > 108 mg/mL
[2]; organic solvent or mixture, solvent Dichloromethane (DCM), RT (~22° C.), read-out: Solubility at RT
  solubility: 108 to 432 mg/mL (≈ 339 to 1360 mM)
[2]; organic solvent or mixture, solvent Dimethyl sulfoxide (DMSO)
  solubility at 1 h: > 20 mg/mL
[2]; organic solvent or mixture, solvent Dimethyl sulfoxide (DMSO), RT (~22° C.), read-out: Solubility at RT
  solubility: 20 to 49 mg/mL (≈ 62.8 to 154 mM)
[2]; organic solvent or mixture, solvent Ethyl Acetate (EtOAc)
  solubility at 1 h: > 21 mg/mL
[2]; organic solvent or mixture, solvent Ethyl Acetate (EtOAc), RT (~22° C.), read-out: Solubility at RT
  solubility: 21 to 52 mg/mL (≈ 65.9 to 163 mM)
[2]; organic solvent or mixture, solvent Isopropyl ether (IPE)
  solubility at 1 h: > 6 mg/mL
[2]; organic solvent or mixture, solvent Isopropyl ether (IPE), RT (~22° C.), read-out: Solubility at RT
  solubility: 6 to 11 mg/mL (≈ 18.8 to 34.5 mM)
[2]; organic solvent or mixture, solvent Methanol (MeOH)
  solubility at 1 h: > 19 mg/mL
[2]; organic solvent or mixture, solvent Methanol (MeOH), RT (~22° C.), read-out: Solubility at RT
  solubility: 19 to 49 mg/mL (≈ 59.7 to 154 mM)
[2]; organic solvent or mixture, solvent Methyl t-butyl ether (MTBE)
  solubility at 1 h: > 10 mg/mL
[2]; organic solvent or mixture, solvent Methyl t-butyl ether (MTBE), RT (~22° C.), read-out: Solubility at RT
  solubility: 10 to 20 mg/mL (≈ 31.4 to 62.8 mM)
[2]; organic solvent or mixture, solvent Tetrahydrofuran (THF)
  solubility at 1 h: > 96 mg/mL
[2]; organic solvent or mixture, solvent Tetrahydrofuran (THF), RT (~22° C.), read-out: Solubility at RT
  solubility: 96 to 384 mg/mL (≈ 301 to 1210 mM)
[2]; organic solvent or mixture, solvent Toluene
  solubility at 1 h: > 20 mg/mL
[2]; organic solvent or mixture, solvent Toluene, RT (~22° C.), read-out: Solubility at RT
  solubility: 20 to 50 mg/mL (≈ 62.8 to 157 mM)
[2]; solvent Water, RT (~22° C.)
  Solubility at RT: <6 mg/mL
[2]; solvent Water
  solubility at 1 h: < 6 mg/mL
[2]; solvent Water, RT (~22° C.), read-out: Solubility at RT
  solubility: < 6 mg/mL
